Columns and labels:
[1] = target: T1, mutant huntingtin (GST fusion protein GST-HDQ51) (Homo sapiens, UniProt P42858, INS38QQQQQQQQQQQQQQQQQQQQQQQQQQQQQQ); experiment: in vitro amyloid fibril formation of huntingtin, electron microscopy; assay type: biochemical
T1 construct: GST (N)
Protocol: (§1) As in the tests described by Heiser et al. (2002), the protein was used for aggregation tests to which either only solvent or solvent and the chemical agent in question was added. Aliquots of these batches were examined by means of the membrane filter test and electron microscopy.
(§2) As in the tests described by Heiser et al. (2002), the protein was used for aggregation tests to which either only solvent or solvent and 7-amino-8-(2,4-dihydroxy-6-methyl-phenyl)-1,9-dimethyl-phenoxazine-3-one was added. Aliquots of these batches were examined by means of the membrane filter test (FIG. 1B) and electron microscopy (FIGS. 1E and 1F).

[2] = target: T2, wild type Aβ1-42 (Homo sapiens, UniProt P05067); experiment: aggregation assay with wild type Aβ1-42, membrane filter method; assay type: biochemical; details: peptide 15 μM, pH 7.4, 42 h, 37° C.
T2 construct: non-mutated (wild type) Aβ1-42
T2 sequence (P05067 672-713 limits assumed): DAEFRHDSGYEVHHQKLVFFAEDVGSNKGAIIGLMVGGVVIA
Protocol: (§3) Analogously, the compounds were also examined in aggregation assays with the amyloid β-peptide Aβ1-42(E22Q), which is a particularly rapidly aggregating variant of amyloid β, as well as with non-mutated (wild type) Aβ1-42. For this purpose, the peptide was incubated at a concentration of 15 μM in a phosphate buffer with a physiological pH value of 7.4 for 42 h at 37° C. and subsequently, aliquots were examined by means of the membrane filter method (Figure) or electron microscopy (Figures) as well. […] Cell viability measurements were carried out in neuronally differentiated PC12 cells to which beta-amyloid and the substances to be tested were added extracellularly in order to examine whether the compounds are able to reduce toxicity caused by amyloid-beta. After 48 h the viability of the cells (approximately corresponds to the number of vital cells) was measured.

[3] = tested on: neuronally differentiated PC12 cells; experiment: toxicity of extracellular Aβ1-42 in neuronally differentiated PC12 cells, MTT test; assay type: cell-based; details: 48 h
Protocol: as §3

[4] = tested on: COS1 cells; experiment: total amount of protein in the cell lysate (toxicity) in the COS1 model; assay type: cell-based
Protocol: (§4) The compounds were then tested in several cell culture models of polyglutamine diseases, inter alia Huntington's chorea. For this purpose, COS1 cells were transiently transfected with the plasmid pTL1-CAG51 already described above (Sittler, A., Walter, S., Wedemeyer, N., Hasenbank, R., Scherzinger, E., Eickhoff, H., Bates, G. P., Lehrach, H. and Wanker, E. E. (1998) Mol Cell 2, 427-36) and cultivated for 44 h in the presence of solvents or the chemical agents. Subsequently, the amount of aggregate was determined with the help of the membrane filter test as described by Heiser et al. (2002). […] The latter could be deduced from the total amount of protein in the cell lysate (FIG. 2B) which was determined with the help of cell extracts.
7-Amino-8-(2,4-dihydroxy-6-methyl-phenyl)-1,9-dimethyl-phenoxazine-3-one was then tested in a cell culture model of Huntington's chorea. […] Subsequently, the amount of aggregate was determined with the help of the membrane filter test as described by Heiser et al. (2002). […] The latter could be deduced from the total amount of protein (FIG. 2B) which was determined with the help of cell extracts.

[5] = target: T3, huntingtin (Homo sapiens, UniProt P42858, INS38QQQQQQQQQQQQQQQQQQQQQQQQQQQQQQ); experiment: cell culture model of Huntington's chorea: COS1 cells transfected with pTL1-CAG51, membrane filter test; assay type: cell-based; details: 40-44 h, membrane filter method
T3 construct: expressed in transfected cells; host or cells: COS1 cells, transient transfection
T3 sequence (P42858 with tags, fused parts or gaps with the stated changes limits assumed): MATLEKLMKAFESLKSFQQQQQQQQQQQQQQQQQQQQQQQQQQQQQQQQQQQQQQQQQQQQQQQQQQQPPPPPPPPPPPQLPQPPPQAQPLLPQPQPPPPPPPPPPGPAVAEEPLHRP
Protocol: as §4
7-Amino-8-(2,4-dihydroxy-6-methyl-phenyl)-1,9-dimethyl-phenoxazine-3-one was then tested in a cell culture model of Huntington's chorea. For this purpose, COS1 cells were transiently transfected with the plasmid pTL1-CAG51 already described above (Sittler, A., Walter, S., Wedemeyer, N., Hasenbank, R., Scherzinger, E., Eickhoff, H., Bates, G. P., Lehrach, H. and Wanker, E. E. (1998) Mol Cell 2, 427-36) and cultivated for 40-44 h in the presence of solvents or 7-amino-8-(2,4-dihydroxy-6-methyl-phenyl)-1,9-dimethyl-phenoxazine-3-one. Subsequently, the amount of aggregate was determined with the help of the membrane filter test as described by Heiser et al. (2002). […] The latter could be deduced from the total amount of protein (FIG. 2B) which was determined with the help of cell extracts.

[6] = target: T4, amyloid β-peptide Aβ1-42[E22Q] (Homo sapiens, UniProt P05067, E693Q); experiment: aggregation assay with Aβ1-42[E22Q], membrane filter method or electron microscopy; assay type: biochemical; details: 15 μM peptide, pH 7.4, 42 h, 37° C.
T4 construct: the amyloid β-peptide Aβ1-42[E22Q]
T4 sequence (P05067 672-713 E693Q): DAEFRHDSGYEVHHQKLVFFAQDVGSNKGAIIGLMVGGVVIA
Protocol: as §3
Analogously, the compound was also examined in aggregation assays with the amyloid β-peptide Aβ1-42[E22Q] which is a particularly rapidly aggregating variant of amyloid β. For this purpose, the peptide was incubated at a concentration of 15 μM in a phosphate buffer with a physiological pH value of 7.4 for 42 h at 37° C. and subsequently, aliquots were examined by means of the membrane filter method (FIG. 1A) or electron microscopy (FIGS. 1C and 1D) as well.

[7] = target: T1, mutant huntingtin (GST fusion protein GST-HDQ51); experiment: in vitro aggregation of mutant huntingtin, membrane filter test; assay type: biochemical; details: membrane filter method
Protocol: as §1, §2

[8] = tested on: caspases-3/-7; experiment: caspase activity in the COS1 model of Huntington's chorea, fluorogenic substrate; assay type: cell-based; details: fluorometric
Protocol: (§5) In addition, it was examined in this cell culture model of Huntington's chorea whether the substances tested substances can cause cell damage by initiating apoptotic processes. For this purpose, the activity of two caspases (caspases-3/-7) was determined fluorometrically after addition of a fluorogenic substrate.
as §5, with “7-amino-8-(2,4-dihydroxy-6-methyl-phenyl)-1,9-dimethyl-phenoxazine-3-one” for “the substances tested substances”, “(caspases 3 and 7)” for “(caspases-3/-7)”

[9] = tested on: alpha-synuclein; experiment: alpha-synuclein amyloid fibril formation, electron microscopy; assay type: biochemical; details: wild type protein or mutant (A53T)
Text: For this purpose, the wild type protein or a mutant (A53T) was used.

[10] = tested on: neuroblastoma cells; details: neuroblastoma cells damaged with amyloid β-peptide; cited from earlier work
[11] = tested on: ataxin-3 deletion construct (aa 221-360) with 71 glutamines; experiment: ataxin-3 aggregation in COS-1 cells, filtration method; assay type: cell-based; details: 40 h, membrane filter method
Protocol: For some compounds, a positive effect could be observed in another cell culture model of Huntington's chorea and a cell culture model of spinocerebellar ataxia (type 3). A test system based on the aggregation of an N-terminal ataxin-3 deletion construct (aa 221-360) with 71 glutamines in COS-1 cells was developed to isolate substances inhibiting the ataxin-3 aggregation. The cells were transiently transfected with the ataxin-3 expression construct and incubated in plates with 96 perforations with the added substance at 37° C. in an incubator. After 40 h the cells were harvested and lysated. The lysates were denatured in the presence of 2% SDS and analyzed using the filtration method.

[12] = target: amyloid-beta fibrils (Homo sapiens, UniProt P05067); experiment: binding to amyloid-beta aggregates located on a cellulose acetate membrane; details: colored substances
amyloid-beta fibrils, sequence (P05067 672-713 limits assumed): as the sequence (P05067 672-713 limits assumed) above
Text: FIG. 16: Binding to amyloid-beta aggregates located on a cellulose acetate membrane

T1 sequence (P42858 with tags, fused parts or gaps with the stated changes limits assumed): as the sequence (P42858 with tags, fused parts or gaps with the stated changes limits assumed) above

With `c1cc2c3c(cccc3c1)NC(c1ccncc1)N2` [2-pyridine-4-yl-2,3-dihydro-1H-perimidine] the “Inhibition of the amyloid fibril formation of huntingtin (Exon-1)” value [1] was “Inhibition of the amyloid fibril formation”.
With `Nc1cccc(C2=Nc3cccc4cccc(c34)N2)c1` [3-(1H-perimidine-2-yl)-phenylamine] the “Inhibition of the aggregation of wild type Aβ1-42 (SDS-insoluble aggregates)” value [2] was “Inhibition of the aggregation” and the “Inhibition of toxicity of extracellular wild type Aβ1-42” value [3] was “Inhibition of toxicity”.
With `Cc1cc(=O)cc2oc3cc(N)c(-c4c(C)cc(O)cc4O)c(C)c3nc1-2` [7-amino-8-(2,4-dihydroxy-6-methyl-phenyl)-1,9-dimethyl-phenoxazine-3-one] the “increase of total protein content” value ([4]; COS1 cells cultivated in presence of compound) was roughly 20%, the “toxic effect, deduced from total amount of protein” value ([4]; COS1 cells, at the concentrations used) was “without having a toxic effect” and the “Inhibition of the amyloid fibril formation of huntingtin (Exon-1)” value [1] was “aggregation inhibiting effect”. The “Inhibition of the aggregation of huntingtin in mammalian cells” value [5] was “aggregation inhibiting influence”, the “Inhibition of the aggregation of amyloid β-peptide Aβ1-42[E22Q]” value [6] was “effectively inhibits the aggregation” and the “Inhibition of the aggregation of huntingtin (Exon-1) (SDS-insoluble aggregates)” value (“Inhibition … (Exon-1) (SDS-insoluble aggregates)” for short) [7] was “aggregation inhibiting effect”. The “caspase activity (caspases 3 and 7)” value [8] was “caspase activity was reduced”.
For `Oc1cc(O)c2c(c1)O[C@H](c1cc(O)c(O)c(O)c1)[C@H](O)C2` [EGC, (−)-Epigallocatechin], the “Inhibition of the aggregation of alpha-synuclein (amyloid fibrils)” value (shortened to “Inhibition … (amyloid fibrils)”) [9] was “Inhibition of the aggregation” and the “Inhibition … (Exon-1) (SDS-insoluble aggregates)” value [7] was “Inhibition of the aggregation”.
For `O=C(O[C@@H]1Cc2c(O)cc(O)cc2O[C@@H]1c1cc(O)c(O)c(O)c1)c1cc(O)c(O)c(O)c1` [EGCG, (−)-Epigallocatechin gallate], the “Inhibition … (amyloid fibrils)” value [9] is given as “Inhibition of the aggregation” and the neuroprotective effect [10] is given as “neuroprotective effect”.
For `Oc1cc(O)c2c(c1)O[C@@H](c1cc(O)c(O)c(O)c1)[C@H](O)C2` [GC, (−)-Gallocatechin], the “Inhibition … (amyloid fibrils)” value [9] was “Inhibition of the aggregation” and the “Inhibition … (Exon-1) (SDS-insoluble aggregates)” value [7] was “Inhibition of the aggregation”.
In the case of `CC(=O)N1CCN(c2ccc(OC(=O)Cc3cccs3)cc2)CC1` [Thiophene-2-yl-acetic acid 4-(4-acetyl-piperazine-1-yl)-phenyl ester], the “Inhibition of the aggregation of ataxin-3 in mammalian cells” value [11] is reported as “Inhibition of the aggregation” and the “Inhibition of the aggregation of huntingtin in mammalian cells” value [5] is reported as “Inhibition of the aggregation”.
For alpha-amino-orcein, the “Inhibition of the aggregation of huntingtin in mammalian cells” value [5] was “Inhibition of the aggregation”, the “Inhibition of the aggregation of wild type Aβ1-42 (SDS-insoluble aggregates)” value [2] was “Inhibition of the aggregation” and the “Inhibition of toxicity of extracellular wild type Aβ1-42” value [3] was “Inhibition of the toxicity”. The “direct binding to amyloid-beta fibrils” value [12] was “bind directly to amyloid-beta fibrils”.

From patent publication US8710088B2, “Pharmaceutical and diagnostic compositions for use in the treatment and diagnosis of neurodegenerative diseases or amyloid diseases” (Max-Delbruck-Centrum fur Molekulare Medizin, priority 2004, dated 2014)
